The supplement of paper PMC11451515

Columns and labels:
Details in all cases: 48 h
NOMO1 [1] = experiment: cell viability relative to DMSO control; higher = less cytotoxic
In short: (§1)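 Cells were incubated for 48 h at 37°C before CellTiter-Glo One luminescence was read. The cells were NOMO1 or SEM (500 cells/well) or P12-Ichikawa (1000 cells/well) leukemia cells, adapted for at least four passages in each medium and seeded in 1536-well plates (5 μl). Dosing used library compounds in DMSO applied by pin over 11 threefold points, 47 μM to 0.79 nM. Viability is the per-plate percentage of DMSO wells, with cell-free wells as background.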

SEM cells [2] = experiment: AUC of viability dose-response curve (% viability x log10 dose units); higher = less sensitive
In short: (§2)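 Leukemia cells adapted to each medium (500 or 1000 cells/well, 1536-well plates) were exposed to library compounds in DMSO for 48 h at 37°C at 11 threefold doses, 47 μM to 0.79 nM. Luminescence by CellTiter-Glo One was normalised per plate to DMSO and cell-free wells, then fitted with a four-parameter log-logistic curve on log10 dose. Curves above full viability were scaled and quality-control failures removed before area under the curve was integrated by trapezoidal rule.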

NOMO1 [3] = experiment: as above
In short: as §2

P12-Ichikawa [4] = experiment: as above
In short: as §2

SEM cells [5] = experiment: cell viability relative to DMSO control; higher = less cytotoxic
In short: as §1

P12-Ichikawa [6] = experiment: as above
In short: as §1

Cc1cc(CN2CCN(c3c(Br)cnc4[nH]c(-c5ccc(N6CCN(C)CC6)cc5)nc34)CC2)no1
NOMO1 [1], RPMI 5 mM glucose + 10% FBS
Details	cell viability [%]
0.000781 µM	120
0.00234 µM	131
0.00702 µM	120
0.0211 µM	129
0.0632 µM	138
0.19 µM	117
0.569 µM	113
1.71 µM	70.2
5.12 µM	102
15.4 µM	78.1
46.1 µM	80.6

AUC of viability dose-response curve
Details	NOMO1 [3]	P12-Ichikawa [4]	SEM cells [2]
HPLM + 10% dialyzed FBS	377	329	317
RPMI 5 mM glucose + 10% FBS	415	333	310
RPMI 5 mM glucose + 10% dialyzed FBS	410	348	307

CC(=O)O[C@H]1C[C@@H]2CC[C@@H]3[C@H](CC[C@@]4(C)[C@H]3C[C@H]([N+]3(C)CCCCC3)[C@@H]4OC(C)=O)[C@@]2(C)C[C@@H]1[N+]1(C)CCCCC1
Details	cell viability [%]
P12-Ichikawa [6], RPMI 5 mM glucose + 10% dialyzed FBS, 0.000781 µM	123
P12-Ichikawa [6], RPMI 5 mM glucose + 10% dialyzed FBS, 0.00234 µM	134
P12-Ichikawa [6], RPMI 5 mM glucose + 10% dialyzed FBS, 0.00702 µM	121
P12-Ichikawa [6], RPMI 5 mM glucose + 10% dialyzed FBS, 0.0211 µM	124
P12-Ichikawa [6], RPMI 5 mM glucose + 10% dialyzed FBS, 0.0632 µM	132
P12-Ichikawa [6], RPMI 5 mM glucose + 10% dialyzed FBS, 0.19 µM	125
P12-Ichikawa [6], RPMI 5 mM glucose + 10% dialyzed FBS, 0.569 µM	127
P12-Ichikawa [6], RPMI 5 mM glucose + 10% dialyzed FBS, 1.71 µM	117
P12-Ichikawa [6], RPMI 5 mM glucose + 10% dialyzed FBS, 5.12 µM	125
P12-Ichikawa [6], RPMI 5 mM glucose + 10% dialyzed FBS, 15.4 µM	117
P12-Ichikawa [6], RPMI 5 mM glucose + 10% dialyzed FBS, 46.1 µM	113
SEM cells [5], HPLM + 10% dialyzed FBS, 0.000781 µM	110
SEM cells [5], HPLM + 10% dialyzed FBS, 0.00234 µM	110
SEM cells [5], HPLM + 10% dialyzed FBS, 0.00702 µM	119
SEM cells [5], HPLM + 10% dialyzed FBS, 0.0211 µM	126
SEM cells [5], HPLM + 10% dialyzed FBS, 0.0632 µM	108
SEM cells [5], HPLM + 10% dialyzed FBS, 0.19 µM	108
SEM cells [5], HPLM + 10% dialyzed FBS, 0.569 µM	115
SEM cells [5], HPLM + 10% dialyzed FBS, 1.71 µM	121
SEM cells [5], HPLM + 10% dialyzed FBS, 5.12 µM	109
SEM cells [5], HPLM + 10% dialyzed FBS, 15.4 µM	110
SEM cells [5], HPLM + 10% dialyzed FBS, 46.1 µM	117

AUC of viability dose-response curve
Details	NOMO1 [3]	P12-Ichikawa [4]	SEM cells [2]
HPLM + 10% dialyzed FBS	459	464	477
RPMI 5 mM glucose + 10% FBS	466	457	438
RPMI 5 mM glucose + 10% dialyzed FBS	472	465	465

C[C@@H](NC1=CC=CC=C1C(O)=O)C/2=C/C(=C\N3C(=O)/C=C(\N=C23)N4CCOCC4)C
cell viability [%]
Details	NOMO1 [1]	P12-Ichikawa [6]	SEM cells [5]
HPLM + 10% dialyzed FBS, 0.000781 µM	81.1	87.2	69.7
HPLM + 10% dialyzed FBS, 0.00234 µM	88.7	87	76.5
HPLM + 10% dialyzed FBS, 0.00702 µM	89.8	101	91.3
HPLM + 10% dialyzed FBS, 0.0211 µM	93.6	94.1	77.7
HPLM + 10% dialyzed FBS, 0.0632 µM	99.7	95.9	87.8
HPLM + 10% dialyzed FBS, 0.19 µM	81.6	93.2	77.7
HPLM + 10% dialyzed FBS, 0.569 µM	82.6	97.1	84.3
HPLM + 10% dialyzed FBS, 1.71 µM	61.7	89.3	79.1
HPLM + 10% dialyzed FBS, 5.12 µM	40.3	75	61.1
HPLM + 10% dialyzed FBS, 15.4 µM	29.4	60.5	13.4
HPLM + 10% dialyzed FBS, 46.1 µM	11.7	39.9	19.8
RPMI 5 mM glucose + 10% FBS, 0.000781 µM	79.1	82.4	89.1
RPMI 5 mM glucose + 10% FBS, 0.00234 µM	73.6	78.7	92.3
RPMI 5 mM glucose + 10% FBS, 0.00702 µM	79.9	83.5	117
RPMI 5 mM glucose + 10% FBS, 0.0211 µM	91.2	97.1	92.8
RPMI 5 mM glucose + 10% FBS, 0.0632 µM	88.2	92.1	104
RPMI 5 mM glucose + 10% FBS, 0.19 µM	87.5	84.7	90.6
RPMI 5 mM glucose + 10% FBS, 0.569 µM	78	85.7	98.2
RPMI 5 mM glucose + 10% FBS, 1.71 µM	77.7	72.2	87.5
RPMI 5 mM glucose + 10% FBS, 5.12 µM	48.3	59.2	55
RPMI 5 mM glucose + 10% FBS, 15.4 µM	27.7	47.9	8.88
RPMI 5 mM glucose + 10% FBS, 46.1 µM	11.1	27.6	13.3
RPMI 5 mM glucose + 10% dialyzed FBS, 0.000781 µM	74.8	77.7	65
RPMI 5 mM glucose + 10% dialyzed FBS, 0.00234 µM	82.9	85.3	76.4
RPMI 5 mM glucose + 10% dialyzed FBS, 0.00702 µM	95.2	93.1	91.7
RPMI 5 mM glucose + 10% dialyzed FBS, 0.0211 µM	88.9	92.9	87
RPMI 5 mM glucose + 10% dialyzed FBS, 0.0632 µM	87.8	90.5	92.7
RPMI 5 mM glucose + 10% dialyzed FBS, 0.19 µM	93.4	88.4	77.8
RPMI 5 mM glucose + 10% dialyzed FBS, 0.569 µM	83	80	70.3
RPMI 5 mM glucose + 10% dialyzed FBS, 1.71 µM	65.2	87.4	63.9
RPMI 5 mM glucose + 10% dialyzed FBS, 5.12 µM	41.8	61.9	44.1
RPMI 5 mM glucose + 10% dialyzed FBS, 15.4 µM	33.1	46.3	9.08
RPMI 5 mM glucose + 10% dialyzed FBS, 46.1 µM	7.82	33.1	11.2

AUC of viability dose-response curve
Details	HPLM + 10% dialyzed FBS	RPMI 5 mM glucose + 10% FBS	RPMI 5 mM glucose + 10% dialyzed FBS
NOMO1 [3]	338	331	336
P12-Ichikawa [4]	407	359	370
